# Assay results published in patent publication EP0934249B1, “CONFORMATIONALLY RESTRICTED POLYAMINES AND THEIR USE AS ANTINEOPLASTIC AGENTS” (WISCONSIN ALUMNI RESEARCH FOUNDATION, priority 1996, dated 1998).
# Counter-ions that a name gives are not always drawn.
# Assays:
# Format in all cases: cell-based
# [1] = test system: MCF7; assay: colony formation (plating efficiency) cell survival assay, standard protocol of Examples 1-8; conditions: Homo sapiens; survival of cultured breast cancer cells MCF7; 4 hours drug exposure, colonies counted day 15-20; read-out: ED50 (the source's name)
# Procedure: (§1) Human breast cancer cell line MCF7 was grown in Richter's Improved Modified Eagle's Medium supplemented with 10% fetal bovine serum (FBS) and 2.2 g/L sodium bicarbonate. Human brain cancer cell line U251MG-NCI was grown in Dulbecco's Modified Eagle's Medium supplemented with 10% FBS. Human lung cancer cell line A549 was grown in Ham's F-12K medium (Fisher Scientific, Itasca, Illinois), supplemented with 10% FBS and 2 mM L-glutamine. Human colon cancer cell line HT29 was cultured in McCoy's 5A medium (Gibco, BRL, Gaithersburg, Maryland), supplemented with 10% FBS. Human prostate cancer cell line PC3 was grown in Dulbecco's Modified Eagles Medium supplemented with 5% FBS. The A549 and MCF7 cell lines were cultured in 100 units/mL penicillin and 100 µg/mL streptomycin. HT29 and U251MG cell lines were grown in 50 µg/mL gentamycin. PC3 cell lines were maintained in 1% antibiotic-antimycotic solution (Sigma, St. Louis, Missouri). The cell cultures were maintained at 37°C in 5% CO2/95% humidified air. All cell cultures are available from the American Type Culture Collection, Rockville, Maryland.
# Ten standard culture flasks for each drug to be tested were plated with 5 x 10^5 cells of a given type in 5 mL of media and allowed to incubate for 16-24 hours at 37°C.
# Fresh stocks of the compounds to be evaluated are prepared. For each drug, two of the ten culture flasks prepared on Day 1 are used as controls. The control flasks are treated with solvent only. Four flasks for each compound are then treated with serially-diluted concentrations of the compound. The remaining flasks are left untouched. The cells are incubated for 4 hours at 37°C.
# After 4 hours the control flasks are counted (2 counts for each flask) and the cells per mL calculated based on the average of the control counts. The cells are then re-plated into six 60 mm dishes for each flask from dilutions based on the cells/mL of the control. (In the various test runs, cell concentrations ranged from approximately 50 to approximately 800 cells per mL.)
# The cells are monitored for colony formation. When visible, the cells are stained with 0.5% crystal violet (in 95% EtOH) and counted. The plating efficiency for each dish is then calculated. The plating efficiencies of the six dishes for each flask are averaged and the standard deviation is calculated. The fraction of cell survival at each concentration is determined based on the controls.
# [2] = test system: A549; assay: MTT assay, percent cell survival; conditions: Homo sapiens, A549, 144 h; drug concentration that killed 50% of the cultured cells; MTT six days after drug treatment; read-out: ID50(µM) A549
# Procedure: as §1
# (§2) Here, a conventional MTT assay was used to evaluate percent cell survival. Exponentially growing monolayer cells were plated in 96-well plates at a density of 500 cells per well and allowed to grow for 24 hours. Serial dilutions of the drugs were added to the wells. Six days after drug treatment, 25 µl of MTT solution (5 mg/ml) was added to each well and incubated for 4 hours at 37°C. Then 100 µl of lysis buffer (20% sodium dodecyl sulfate, 50% DMF, and 0.8% acetic acid, pH 4.7) was added to each well and incubated for an additional 22 hours. A microplate reader ("EMAX"-brand, Molecular Devices, Sunnyvale, California) set at 570 nm was used to determine the optical density of the cultures. Results are expressed as a ratio of the optical density in drug-treated wells to the optical density in wells treated with vehicle only.
# (§3) The ID50 is the drug concentration that killed 50% of the cultured cells.
# [3] = test system: HT-29; assay: MTT assay, percent cell survival; conditions: Homo sapiens, HT-29, 144 h; drug concentration that killed 50% of the cultured cells; MTT six days after drug treatment; read-out: ID50(µM) HT-29
# Procedure: as §1, §2, §3
# [4] = test system: MCF7; assay: MTT assay, percent cell survival; conditions: Homo sapiens, MCF7, 144 h; drug concentration that killed 50% of the cultured cells; MTT six days after drug treatment; read-out: ID50(µM) MCF7
# Procedure: as §1, §2, §3
# [5] = test system: PC-3; assay: MTT assay, percent cell survival; conditions: Homo sapiens, PC-3, 144 h; drug concentration that killed 50% of the cultured cells; MTT six days after drug treatment; read-out: ID50(µM) PC-3
# Procedure: as §1, §2, §3
# [6] = test system: U251MG NCl; assay: MTT assay, percent cell survival; conditions: Homo sapiens, U-251, 144 h; drug concentration that killed 50% of the cultured cells; MTT six days after drug treatment; read-out: ID50(µM) U251MG NCl
# Procedure: as §1, §2, §3
SMILES,EC50 [1] [µM],IC50 [2] [µM],IC50 [3] [µM],IC50 [4] [µM],IC50 [5] [µM],IC50 [6] [µM]
"CCNCCCNC/C=C\CNCCCNCC [SL-11047, N,N^1-bis(3-ethylaminapropyl)-(Z)-but-2-ene-1,4-diamine tetrahydrochloride]",1.49,0.25,1.6,9.5,3.6,0.55
"CCNCCCNC[C@@H]1C[C@@H]1CNCCCNCC [SL-11037, N-Ethyl-N'-(2-(3'-ethylamino-propylaminomethyl)-cis-cyclopropylmethyl)-propane 1,3-diamine tetrahydrochloride]",1.64,0.12,1.6,> 31.2,7.4,
"CCNCCCNC[C@H]1CC[C@H]1CNCCCNCC [SL-11043, N-Ethyl-N'-(2-(3'-ethylamino-propylaminomethyl)-cis-cyclobutylmethyl)-propanel,3-diamine tetrahydrochloride]",1.64,,1.5,25.5,> 31.2,
"CCNCCCNCC1CCC1CNCCCNCC (stereo not drawn) [SL-11044, N-Ethyl-N'-(2-(3'-ethylamino-propylaminomethyl)-trans-cyclobutylmethyl)-propane1,3-diaminetetrahydrochloride]",1.79,,1.6,> 31.2,> 31.2,0.12
"CCNCCCNCC1CC1CNCCCNCC (stereo not drawn) [SL-11038, N-Ethyl-N'-(2-(3'-ethylamino-propylaminomethyl)-trans-cyclopropylmethyl)-propane-1,3-diamine tetrahydrochloride]",1.34,0.25,1.4,> 31.2,12.4,
"CCNCCCNC/C=C/CNCCCNCC [SL-11048, N,Nl-bis(3-ethylaminopropyl)-(E)-but-2-ene-1,4-diamine tetrahydrochloride, reference compound]",1.49,0.26,1.4,> 31.2,1.4,2
